Tests used:
Cbl-b [1] = biological target: T1, Cbl-b (Homo sapiens (Human), UniProt Q13191); test: Cbl-b displacement assay (Cbl-b inhibition assay), Biological Example 12; type: binding; conditions: 0.125 nM Cbl-b final concentration (Low), Table 7; read-out: Cbl-b IC50 (Low)
Description: (§1) Candidate compounds were evaluated for their ability to bind and inhibit Cbl-b, an E3 ubiquitin-protein ligase, as evidenced by their ability to displace a fluorophore-labeled probe bound to Cbl-b.
(§2) The ability of candidate compounds to displace a known inhibitor and thereby inhibit Cbl-b activity was measured by monitoring the interaction of Cbl-b with a fluorophore-labeled probe in the presence of the candidate compound. A truncated variant of Cbl-b (UniProt number Q13191) containing residues 36-427 and an Avitag at its N-terminus was co-expressed with BirA biotin ligase and purified using a standard protocol (see Dou et al., Nature Structural and Molecular Biology 8: 982-987, 2013; Avidity LLC).
Fluorescently-labeled inhibitor probe was synthesized and tagged with BODIPY FL. Cbl-b displacement assays were performed in a 384-well plate at room temperature in a […] by pre-incubating 0.5 nM Cbl-b or 0.125 nM Cbl-b (final concentration, indicated as “High” and “Low,” respectively) in an assay buffer containing 20 mM HEPES pH 7.5, 150 mM NaCl, 0.01% Triton X-100, 0.01% BSA and 0.5 mM TCEP in the presence of a candidate compound in 1% DMSO (final concentration) for one hour. After incubation in the presence of the candidate compound, the plate was incubated for an additional one hour in the presence of an approximate EC40 binding saturation consisting of 150 nM fluorescently-labeled inhibitor probe and 2 nM Streptavidin-Terbium (Cisbio) (final concentrations). Following the one hour incubation, the plates were read for TR-FRET signal at […] using an Envision plate reader (Perkin Elmer).
(§3) The resulting data for the Cbl-b activity assays were analyzed using standard methods to determine the IC50 values for the tested compounds.

[2] = tested on: primary human total T-cells; test: T-cell activation, IL-2 secretion, Biological Example 2; type: cell-based; conditions: 48 hours, fold change over baseline; for fold induction at 0.3 µM: 0.3 μM inhibitor; for fold induction at 1 µM: 1 μM inhibitor; for fold induction at 3 µM: 3 μM inhibitor
Cbl-b [3] = biological target: T1, Cbl-b; test: Cbl-b displacement assay (Cbl-b inhibition assay), Biological Example 8; type: binding; conditions: 0.125 nM Cbl-b final concentration (Low), Table 4; read-out: Cbl-b IC50 (Low)
Description: as §1, §2
Fluorescently-labeled inhibitor probe was synthesized and tagged with BODIPY FL. Cbl-b displacement assays were performed in a 384-well plate at room temperature in a […] by pre-incubating 0.5 nM Cbl-b or 0.125 nM Cbl-b (final concentration, indicated as “High” and “Low,” respectively) in an assay buffer containing 20 mM HEPES pH 7.5, 150 mM NaCl, 0.01% Triton X-100, 0.01% BSA, and 0.5 mM TCEP in the presence of a candidate compound in 1% DMSO (final concentration) for 1 hour. After incubation in the presence of the candidate compound, the plate was incubated for an additional one hour in the presence of an approximate EC40 binding saturation consisting of 150 nM fluorescently-labeled inhibitor probe and 2 nM Streptavidin-Terbium (Cisbio) (final concentrations). Following the one hour incubation, the plates were read for TR-FRET signal at […] using an Envision plate reader (Perkin Elmer).
as §3

Cbl-b [4] = biological target: T1, Cbl-b; test: Cbl-b displacement assay (Cbl-b inhibition assay), Biological Example 1; type: binding
How it was run: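 Avitag-biotinylated human Cbl-b (residues 36–427) at 0.5 nM ("High") or 0.125 nM ("Low") pre-incubated 1 h with compound (1% DMSO) in HEPES pH 7.5/NaCl/Triton/BSA/TCEP, RT. Then 1 h with 150 nM BODIPY FL inhibitor probe (~EC40) plus 2 nM streptavidin-Tb. TR-FRET read at 520/620 nm for probe displacement.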

[5] = tested on: primary human total T-cells; test: T-cell activation, CD25 surface staining, Biological Example 2; type: cell-based; conditions: 48 hours, fold change over baseline; for fold induction at 0.3 µM: 0.3 μM inhibitor; for fold induction at 1 µM: 1 μM inhibitor; for fold induction at 3 µM: 3 μM inhibitor
[6] = tested on: primary human total T-cells; test: T-cell activation, IL-2 secretion, Biological Example 13; type: cell-based; conditions: 48 hours, fold change over baseline, Table 8; for IL-2 secretion CD3/CD28 0.3 μM / IL-2 secretion CD3/CD28 1 μM: anti-CD3 and anti-CD28 co-stimulation; for IL-2 secretion CD3/CD28 0.3 μM: 0.3 μM inhibitor; for IL-2 secretion CD3/CD28 1 μM / IL-2 secretion CD3 1 μM: 1 μM inhibitor; for IL-2 secretion CD3 1 μM / IL-2 secretion CD3 3 μM: anti-CD3 stimulation alone; for IL-2 secretion CD3 3 μM: 3 μM inhibitor
[7] = tested on: primary human total T-cells; test: T-cell activation, IL-2 secretion, Biological Example 9; type: cell-based; conditions: 48 hours, fold change over baseline, Table 5; for IL-2 secretion CD3/CD28 0.3 μM / IL-2 secretion CD3/CD28 1 μM: anti-CD3 and anti-CD28 co-stimulation; for IL-2 secretion CD3/CD28 0.3 μM: 0.3 μM inhibitor; for IL-2 secretion CD3/CD28 1 μM / IL-2 secretion CD3 1 μM: 1 μM inhibitor; for IL-2 secretion CD3 1 μM / IL-2 secretion CD3 3 μM: anti-CD3 stimulation alone; for IL-2 secretion CD3 3 μM: 3 μM inhibitor
[8] = anti-CD3 and anti-CD28 co-stimulation
[9] = anti-CD3 and anti-CD28 co-stimulation, read-out: IL-2 secretion CD3/CD28 1 μM
[10] = anti-CD3 stimulation alone, read-out: IL-2 secretion CD3 1 μM
[11] = 0.125 nM Cbl-b final concentration (Low), read-out: Cbl-b activity IC50 (Low)
[12] = read-out: IC50 values in the Cbl-b inhibition assay of Biological Example 1
[13] = anti-CD3 and anti-CD28 co-stimulation, read-out: CD25 staining CD3/CD28 1 μM
[14] = anti-CD3 stimulation alone, read-out: CD25 staining CD3 1 μM

T1 sequence (Q13191 36-427): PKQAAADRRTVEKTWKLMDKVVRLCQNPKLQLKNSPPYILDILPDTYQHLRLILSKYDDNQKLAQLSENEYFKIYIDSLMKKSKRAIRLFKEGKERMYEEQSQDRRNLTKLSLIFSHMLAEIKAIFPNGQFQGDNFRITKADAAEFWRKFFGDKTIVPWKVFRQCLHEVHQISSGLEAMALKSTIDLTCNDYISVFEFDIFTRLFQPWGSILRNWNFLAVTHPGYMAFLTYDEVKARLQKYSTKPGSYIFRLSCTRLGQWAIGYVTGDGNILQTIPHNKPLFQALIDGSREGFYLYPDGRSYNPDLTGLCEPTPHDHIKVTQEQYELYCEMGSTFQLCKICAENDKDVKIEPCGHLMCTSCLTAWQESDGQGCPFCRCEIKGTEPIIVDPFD

| Structure (SMILES) | IC50 (Cbl-b [1]) [nM] | fold induction at 0.3 µM [2, 8] | fold induction at 1 µM [2, 9] | fold induction at 1 µM [2, 10] | fold induction at 3 µM ([2]; anti-CD3 stimulation alone) | IC50 (Cbl-b [3]) [nM] | IC50 (Cbl-b [4]; [11]) [nM] | IC50 (Cbl-b [4]; [12]) [nM] | fold induction at 0.3 µM [5, 8] | fold induction at 1 µM [5, 13] | fold induction at 1 µM [5, 14] | fold induction at 3 µM ([5]; anti-CD3 stimulation alone) | IL-2 secretion CD3/CD28 0.3 μM [6] | IL-2 secretion CD3/CD28 1 μM [6] | IL-2 secretion CD3 1 μM [6] | IL-2 secretion CD3 3 μM [6] | IL-2 secretion CD3/CD28 0.3 μM [7] | IL-2 secretion CD3/CD28 1 μM [7] | IL-2 secretion CD3 1 μM [7] | IL-2 secretion CD3 3 μM [7] |
| --- | --- | --- | --- | --- | --- | --- | --- | --- | --- | --- | --- | --- | --- | --- | --- | --- | --- | --- | --- | --- |
| Cn1cnnc1C[C@]1(c2cccc(N3Cc4c(cc(CN5CCC6(CC6)C5)cc4C(F)(F)F)C3=O)c2)C[C@H](C#N)C1 [Compound 4, (1r,3r)-3-(3-(6-((5-azaspiro[2.4]heptan-5-yl)methyl)-1-oxo-4-(trifluoromethyl)isoindolin-2-yl)phenyl)-3-((4-methyl-4H-1,2,4-triazol-3-yl)methyl)cyclobutane-1-carbonitrile] | 1 to 5 | ≤ 15 | 15 to 20 | 0.4 to 0.85 | 0.4 to 0.85 | 1 to 5 | 1 to 2 | 1 to 2 | 1.24 to 1.39 | 1.24 to 1.39 | > 1.15 | > 1.15 | A (A indicates >15 fold) | A (A indicates >15 fold) | A (A indicates >0.66 fold) | A (A indicates >0.66 fold) | A (A indicates >15 fold) | A (A indicates >15 fold) | A (A indicates >0.66 fold) | A (A indicates >0.66 fold) |
| C[C@@H]1CN(Cc2cc3c(c(C(F)(F)F)c2)CN(c2cccc([C@]4(Cc5nncn5C)C[C@@H](C#N)C4)c2)C3=O)CCC1(F)F [Compound 11, (1R,3r)-3-(3-(6-(((R)-4,4-difluoro-3-methylpiperidin-1-yl)methyl)-1-oxo-4-(trifluoromethyl)isoindolin-2-yl)phenyl)-3-((4-methyl-4H-1,2,4-triazol-3-yl)methyl)cyclobutane-1-carbonitrile] | 1 to 5 | > 20 | > 20 | > 0.85 | > 0.85 | 1 to 5 | 1 to 2 | 1 to 2 | 1.24 to 1.39 | 1.24 to 1.39 | 1 to 1.15 | ≤ 1 | A (A indicates >15 fold) | A (A indicates >15 fold) | A (A indicates >0.66 fold) | A (A indicates >0.66 fold) | A (A indicates >15 fold) | A (A indicates >15 fold) | A (A indicates >0.66 fold) | A (A indicates >0.66 fold) |
| C[C@H]1CCCN(Cc2cc(C(=O)Nc3cccc([C@]4(Cc5nncn5C)C[C@@H](C#N)C4)c3)nc(C3CC3)c2)C1 [Compound 55, N-(3-((1r,3S)-3-cyano-1-((4-methyl-4H-1,2,4-triazol-3-yl)methyl)cyclobutyl)phenyl)-6-cyclopropyl-4-(((S)-3-methylpiperidin-1-yl)methyl)picolinamide] | – | > 20 | > 20 | > 0.85 | > 0.85 | – | < 1 | – | 1.24 to 1.39 | 1.24 to 1.39 | ≤ 1 | ≤ 1 | – | – | – | – | – | – | – | – |
| Cn1cnnc1C[C@]1(c2cccc(N3Cc4c(cc(CN5CCc6ncccc6C5)cc4C(F)(F)F)C3=O)c2)C[C@H](C#N)C1 [Compound 28, (1r,3r)-3-(3-(6-((7,8-dihydro-1,6-naphthyridin-6(5H)-yl)methyl)-1-oxo-4-(trifluoromethyl)isoindolin-2-yl)phenyl)-3-((4-methyl-4H-1,2,4-triazol-3-yl)methyl)cyclobutane-1-carbonitrile] | – | ≤ 15 | ≤ 15 | < 0.4 | < 0.4 | – | 2 to 5 | – | ≤ 1.24 | ≤ 1.24 | ≤ 1 | ≤ 1 | – | – | – | – | – | – | – | – |
| Cn1cnnc1C[C@]1(c2cccc(N3Cc4c(cc(CN5CCCCC(F)(F)C5)cc4C(F)(F)F)C3=O)c2)C[C@H](C#N)C1 [Compound 50, (1r,3r)-3-(3-(6-((3,3-difluoroazepan-1-yl)methyl)-1-oxo-4-(trifluoromethyl)isoindolin-2-yl)phenyl)-3-((4-methyl-4H-1,2,4-triazol-3-yl)methyl)cyclobutane-1-carbonitrile] | – | > 20 | > 20 | > 0.85 | 0.4 to 0.85 | – | 2 to 5 | 2 to 5 | > 1.39 | > 1.39 | > 1.15 | > 1.15 | – | – | – | – | – | – | – | – |
| CC1CN(Cc2cc3c(c(C(F)(F)F)c2)CN(c2cccc([C@]4(Cc5nncn5C)C[C@@H](C#N)C4)c2)C3=O)CCCO1 (stereo partly drawn) [Compound 33, (1r,3r)-3-(3-(6-((2-methyl-1,4-oxazepan-4-yl)methyl)-1-oxo-4-(trifluoromethyl)isoindolin-2-yl)phenyl)-3-((4-methyl-4H-1,2,4-triazol-3-yl)methyl)cyclobutane-1-carbonitrile] | – | ≤ 15 | ≤ 15 | 0.4 to 0.85 | 0.4 to 0.85 | – | 2 to 5 | – | ≤ 1.24 | ≤ 1.24 | ≤ 1 | ≤ 1 | – | – | – | – | – | – | – | – |
| Cn1cnnc1C[C@]1(c2cccc(N3Cc4c(cc(CNC5COC(C)(C)C5)cc4C(F)(F)F)C3=O)c2)C[C@H](C#N)C1 (stereo partly drawn) [Compound 24, (1r,3r)-3-(3-(6-(((5,5-dimethyltetrahydrofuran-3-yl)amino)methyl)-1-oxo-4-(trifluoromethyl)isoindolin-2-yl)phenyl)-3-((4-methyl-4H-1,2,4-triazol-3-yl)methyl)cyclobutane-1-carbonitrile] | – | ≤ 15 | 15 to 20 | 0.4 to 0.85 | 0.4 to 0.85 | – | 2 to 5 | 2 to 5 | 1.24 to 1.39 | 1.24 to 1.39 | > 1.15 | 1 to 1.15 | – | – | – | – | – | – | – | – |

Reference: patent US11530229B2, “Cyano cyclobutyl compounds for CBL-B inhibition and uses thereof” (Nurix Therapeutics, Inc., priority 2019, dated 2022)
